Test system: 855422-203-R-J1-PDC spheroids with HUVEC/MSC, viability
Test: Anticancer human tumor 855422-203-R-J1-PDC patient-derived bladder carcinoma cell line growth inhibition [PI3K]
Details: for IC50: curve of first compound; for viability, T/C: stronger effect = lower value
In short: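 We assembled tumor spheroids that included a stromal compartment of HUVEC and MSCs, then exposed them to targeted agents alone and together with PI3K pathway inhibitors. Concentration series descended by half-log from clinically achievable Cmax levels. Viability served as the endpoint.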

[1] = second compound 0.0316 µM, first compound 0.000316 µM
[2] = second compound 0.0316 µM, first compound 0.001 µM
[3] = second compound 0.0316 µM, first compound 0.00316 µM
[4] = second compound 0.0316 µM, first compound 0.01 µM
[5] = second compound 0.0316 µM, first compound 0.0316 µM
[6] = second compound 0.0316 µM, first compound 0.1 µM
[7] = second compound 0.1 µM, first compound 0.000316 µM
[8] = second compound 0.1 µM, first compound 0.001 µM
[9] = second compound 0.1 µM, first compound 0.00316 µM
[10] = second compound 0.1 µM, first compound 0.01 µM
[11] = second compound 0.1 µM, first compound 0.0316 µM
[12] = second compound 0.1 µM, first compound 0.1 µM
[13] = second compound 0.316 µM, first compound 0.000316 µM
[14] = second compound 0.316 µM, first compound 0.001 µM
[15] = second compound 0.316 µM, first compound 0.00316 µM
[16] = second compound 0.316 µM, first compound 0.01 µM
[17] = second compound 0.316 µM, first compound 0.0316 µM
[18] = second compound 0.316 µM, first compound 0.1 µM
[19] = second compound 1 µM, first compound 0.000316 µM
[20] = second compound 1 µM, first compound 0.001 µM
[21] = second compound 1 µM, first compound 0.00316 µM
[22] = second compound 1 µM, first compound 0.01 µM
[23] = second compound 1 µM, first compound 0.0316 µM
[24] = second compound 1 µM, first compound 0.1 µM
[25] = second compound 0.00316 µM, first compound 0.0316 µM
[26] = second compound 0.00316 µM, first compound 0.1 µM
[27] = second compound 0.01 µM, first compound 0.0316 µM
[28] = second compound 0.01 µM, first compound 0.1 µM
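Note: agents incubated with spheroids for one week before read-out.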
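Throughout, for viability, T/C: 100% = DMSO vehicle-treated control wells.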

With `Cn1ncnc1[C@H]1c2n[nH]c(=O)c3cc(F)cc(c23)N[C@@H]1c1ccc(F)cc1` + Cc1nc(NC(=O)N2CCCC2C(N)=O)sc1-c1ccnc(C(C)(C)C(F)(F)F)c1 the IC50 (second compound 0.0316 µM) was > 100 nM, the IC50 (second compound 0.1 µM) was > 100 nM and the IC50 (second compound 0.316 µM) was > 100 nM. The IC50 (second compound 1 µM) was > 100 nM, the IC50 (second compound 3.16 µM) was 0.903 nM and the IC50 (second compound 10 µM) was < 0.316 nM. The viability, T/C [1] was 112%, the viability, T/C [2] was 92.8% and the viability, T/C [3] was 112%. For the same compound, the viability, T/C [4] was 96.8%, the viability, T/C [5] was 105% and the viability, T/C [6] was 109%. For the same compound, the viability, T/C [7] was 105%, the viability, T/C [8] was 102% and the viability, T/C [9] was 102%. It also gave a viability, T/C [10] of 101%, a viability, T/C [11] of 101% and a viability, T/C [12] of 105%. The viability, T/C [13] was 92.9%, the viability, T/C [14] was 93.8% and the viability, T/C [15] was 95.8%. For the same compound, the viability, T/C [16] was 94.7%, the viability, T/C [17] was 98.6% and the viability, T/C [18] was 97.2%. It also gave a viability, T/C [19] of 72.7%, a viability, T/C [20] of 74% and a viability, T/C [21] of 79.2%. It also gave a viability, T/C [22] of 75.5%, a viability, T/C [23] of 79.4% and a viability, T/C [24] of 68.3%. The viability, T/C (second compound 3.16 µM, first compound 0.000316 µM) was 51.6%, the viability, T/C (second compound 3.16 µM, first compound 0.001 µM) was 49.8% and the viability, T/C (second compound 3.16 µM, first compound 0.00316 µM) was 47.1%. It also gave a viability, T/C (second compound 3.16 µM, first compound 0.01 µM) of 47.7%, a viability, T/C (second compound 3.16 µM, first compound 0.0316 µM) of 49.1% and a viability, T/C (second compound 3.16 µM, first compound 0.1 µM) of 44.6%. For the same compound, the viability, T/C (second compound 10 µM, first compound 0.000316 µM) was 25.6%, the viability, T/C (second compound 10 µM, first compound 0.001 µM) was 25.1% and the viability, T/C (second compound 10 µM, first compound 0.00316 µM) was 22.2%. For the same compound, the viability, T/C (second compound 10 µM, first compound 0.01 µM) was 27.8%, the viability, T/C (second compound 10 µM, first compound 0.0316 µM) was 25.1% and the viability, T/C (second compound 10 µM, first compound 0.1 µM) was 21.3%.

`CC1(C)CCC(Nc2ncc(C(F)(F)F)c(-c3c[nH]c4c(P(C)(C)=O)c(C#N)ccc34)n2)CN1` (stereo unspecified) + COc1c(OCCCN2CCOCC2)ccc2c3n(c(=NC(=O)c4cnc(N)nc4)nc12)CCN3 was tested, and the IC50 (second compound 0.00316 µM) was < 31.6 nM, the IC50 (second compound 0.01 µM) was < 31.6 nM and the IC50 (second compound 0.0316 µM) was < 31.6 nM. For the same compound, the IC50 (second compound 0.1 µM) was < 31.6 nM, the IC50 (second compound 0.316 µM) was < 31.6 nM and the IC50 (second compound 1 µM) was < 31.6 nM. The viability, T/C [25] was 24.9%, the viability, T/C [26] was 20.8% and the viability, T/C (second compound 0.00316 µM, first compound 0.316 µM) was 22.4%. The viability, T/C (second compound 0.00316 µM, first compound 1 µM) was 23.3%, the viability, T/C (second compound 0.00316 µM, first compound 3.16 µM) was 24.3% and the viability, T/C (second compound 0.00316 µM, first compound 10 µM) was 2.48%. For the same compound, the viability, T/C [27] was 21.2%, the viability, T/C [28] was 18.6% and the viability, T/C (second compound 0.01 µM, first compound 0.316 µM) was 21.3%. The viability, T/C (second compound 0.01 µM, first compound 1 µM) was 19.8%, the viability, T/C (second compound 0.01 µM, first compound 3.16 µM) was 20.4% and the viability, T/C (second compound 0.01 µM, first compound 10 µM) was 3.49%. It also gave a viability, T/C [5] of 16.7%, a viability, T/C [6] of 17.2% and a viability, T/C (second compound 0.0316 µM, first compound 0.316 µM) of 13.9%. The viability, T/C (second compound 0.0316 µM, first compound 1 µM) was 16.9%, the viability, T/C (second compound 0.0316 µM, first compound 3.16 µM) was 16.6% and the viability, T/C (second compound 0.0316 µM, first compound 10 µM) was 1.53%. It also gave a viability, T/C [11] of 12.7%, a viability, T/C [12] of 10.7% and a viability, T/C (second compound 0.1 µM, first compound 0.316 µM) of 12.4%. For the same compound, the viability, T/C (second compound 0.1 µM, first compound 1 µM) was 10.1%, the viability, T/C (second compound 0.1 µM, first compound 3.16 µM) was 8.84% and the viability, T/C (second compound 0.1 µM, first compound 10 µM) was 1.32%. The viability, T/C [17] was 5.48%, the viability, T/C [18] was 4.79% and the viability, T/C (second compound 0.316 µM, first compound 0.316 µM) was 5.47%. For the same compound, the viability, T/C (second compound 0.316 µM, first compound 1 µM) was 6.03%, the viability, T/C (second compound 0.316 µM, first compound 3.16 µM) was 3.06% and the viability, T/C (second compound 0.316 µM, first compound 10 µM) was 1.28%. For the same compound, the viability, T/C [23] was 1.83%, the viability, T/C [24] was 2.45% and the viability, T/C (second compound 1 µM, first compound 0.316 µM) was 2.02%. It also gave a viability, T/C (second compound 1 µM, first compound 1 µM) of 2.08%, a viability, T/C (second compound 1 µM, first compound 3.16 µM) of 1.22% and a viability, T/C (second compound 1 µM, first compound 10 µM) of 1.25%.

In the case of `CC(C)n1nc(-c2ccc3oc(N)nc3c2)c2c(N)ncnc21` + COc1c(OCCCN2CCOCC2)ccc2c3n(c(=NC(=O)c4cnc(N)nc4)nc12)CCN3, the IC50 (second compound 0.00316 µM) is reported as 47 nM, the IC50 (second compound 0.01 µM) is reported as 31.3 nM and the IC50 (second compound 0.0316 µM) is reported as 10.6 nM. For the same compound, the IC50 (second compound 0.1 µM) was < 0.316 nM, the IC50 (second compound 0.316 µM) was < 0.316 nM and the IC50 (second compound 1 µM) was < 0.316 nM. The viability, T/C (second compound 0.00316 µM, first compound 0.000316 µM) was 106%, the viability, T/C (second compound 0.00316 µM, first compound 0.001 µM) was 88.3% and the viability, T/C (second compound 0.00316 µM, first compound 0.00316 µM) was 94.4%. For the same compound, the viability, T/C (second compound 0.00316 µM, first compound 0.01 µM) was 81.5%, the viability, T/C [25] was 72.6% and the viability, T/C [26] was 14.6%. The viability, T/C (second compound 0.01 µM, first compound 0.000316 µM) was 89.6%, the viability, T/C (second compound 0.01 µM, first compound 0.001 µM) was 87.7% and the viability, T/C (second compound 0.01 µM, first compound 0.00316 µM) was 90.3%. The viability, T/C (second compound 0.01 µM, first compound 0.01 µM) was 86.5%, the viability, T/C [27] was 49.7% and the viability, T/C [28] was 10.4%. It also gave a viability, T/C [1] of 72.1%, a viability, T/C [2] of 68.8% and a viability, T/C [3] of 56.8%. The viability, T/C [4] was 53%, the viability, T/C [5] was 34.5% and the viability, T/C [6] was 7.16%. For the same compound, the viability, T/C [7] was 33.4%, the viability, T/C [8] was 30.8% and the viability, T/C [9] was 33.1%. For the same compound, the viability, T/C [10] was 29.3%, the viability, T/C [11] was 19.1% and the viability, T/C [12] was 4.35%. The viability, T/C [13] was 11.2%, the viability, T/C [14] was 10.2% and the viability, T/C [15] was 9.76%. It also gave a viability, T/C [16] of 9.27%, a viability, T/C [17] of 5.64% and a viability, T/C [18] of 2.5%. For the same compound, the viability, T/C [19] was 5.23%, the viability, T/C [20] was 5.41% and the viability, T/C [21] was 4.21%. For the same compound, the viability, T/C [22] was 4.46%, the viability, T/C [23] was 3.47% and the viability, T/C [24] was 1.3%.

Reference: PubChem BioAssay AID1963967 (Molecular Pharmacology Branch, DTP, NCI, 2024)
